Paper PMC11021760, “Quantum-assisted fragment-based automated structure generator (QFASG) for small molecule design: an in vitro study” (Frontiers in Chemistry, 2024)

Experiments:
Format in all cases: biochemical
CaMKK2 (h) = target: T1, CaMKK2 (h) (Homo sapiens, UniProt Q96RR4); experiment: CAMKK2 kinase activity assay (DiscoverX/Eurofins, radiometric [gamma-33P]-ATP); settings: ATP concentration of 10 µM
T1 construct: purchased DiscoverX/Eurofins
Experimental: The assay is available as a product of DiscoverX/Eurofins. CaMKK2 (h) was incubated with 20 mM Tris/HCl pH 8.5, 0.2 mM EDTA, 0.5% BSA, 0.5 mM CaCl2, 0.016 mg/mL calmodulin, 150 µM […], 10 mM MgAcetate and [gamma-33P]-ATP (specific activity and concentration of 10 µM). The reaction was initiated by the addition of the Mg/ATP mix. After incubation for 40 min 13 at room temperature, the reaction was stopped by the addition of phosphoric acid to a concentration of 0.5%. An aliquot of the reaction was then spotted onto a filter and washed four times for 4 min in 0.425% phosphoric acid and once in methanol prior to drying and scintillation counting.

DNA-PK (h) = target: T2, DNA-PK (h) (Homo sapiens, UniProt P78527); experiment: DNA-PK kinase activity assay (DiscoverX/Eurofins, HTRF); settings: ATP 10 µM
T2 construct: purchased DiscoverX/Eurofins
Experimental: (§1) The assay is available as a product of DiscoverX/Eurofins. DNA-PK (h) was incubated in assay buffer containing 50 nM GST-cMyc-p53 and Mg/ATP (concentration of 10 µM). The reaction is initiated by the addition of the Mg/ATP mix. After incubation for 30 min at room temperature, the reaction was stopped by the addition of stop solution containing EDTA. Finally, detection buffer was added, which contained a d2-labelled anti-GST monoclonal antibody and a europium-labelled anti-phospho Ser15 antibody against phosphorylated p53. The plate is then read in time-resolved fluorescence mode, and the homogeneous time-resolved fluorescence (HTRF) signal is determined according to the formula HTRF = 10,000 × (Em665 nm/Em620 nm).

ATM (h) = target: T3, ATM (h) (Homo sapiens, UniProt Q13315); experiment: ATM kinase activity assay (DiscoverX/Eurofins, HTRF); settings: ATP 10 µM; for remaining activity at 10 µM: compound at 10 μM, read-out: ATM residual activity at 10μM
T3 construct: purchased DiscoverX/Eurofins
T3 sequence (Q13315 whole entry): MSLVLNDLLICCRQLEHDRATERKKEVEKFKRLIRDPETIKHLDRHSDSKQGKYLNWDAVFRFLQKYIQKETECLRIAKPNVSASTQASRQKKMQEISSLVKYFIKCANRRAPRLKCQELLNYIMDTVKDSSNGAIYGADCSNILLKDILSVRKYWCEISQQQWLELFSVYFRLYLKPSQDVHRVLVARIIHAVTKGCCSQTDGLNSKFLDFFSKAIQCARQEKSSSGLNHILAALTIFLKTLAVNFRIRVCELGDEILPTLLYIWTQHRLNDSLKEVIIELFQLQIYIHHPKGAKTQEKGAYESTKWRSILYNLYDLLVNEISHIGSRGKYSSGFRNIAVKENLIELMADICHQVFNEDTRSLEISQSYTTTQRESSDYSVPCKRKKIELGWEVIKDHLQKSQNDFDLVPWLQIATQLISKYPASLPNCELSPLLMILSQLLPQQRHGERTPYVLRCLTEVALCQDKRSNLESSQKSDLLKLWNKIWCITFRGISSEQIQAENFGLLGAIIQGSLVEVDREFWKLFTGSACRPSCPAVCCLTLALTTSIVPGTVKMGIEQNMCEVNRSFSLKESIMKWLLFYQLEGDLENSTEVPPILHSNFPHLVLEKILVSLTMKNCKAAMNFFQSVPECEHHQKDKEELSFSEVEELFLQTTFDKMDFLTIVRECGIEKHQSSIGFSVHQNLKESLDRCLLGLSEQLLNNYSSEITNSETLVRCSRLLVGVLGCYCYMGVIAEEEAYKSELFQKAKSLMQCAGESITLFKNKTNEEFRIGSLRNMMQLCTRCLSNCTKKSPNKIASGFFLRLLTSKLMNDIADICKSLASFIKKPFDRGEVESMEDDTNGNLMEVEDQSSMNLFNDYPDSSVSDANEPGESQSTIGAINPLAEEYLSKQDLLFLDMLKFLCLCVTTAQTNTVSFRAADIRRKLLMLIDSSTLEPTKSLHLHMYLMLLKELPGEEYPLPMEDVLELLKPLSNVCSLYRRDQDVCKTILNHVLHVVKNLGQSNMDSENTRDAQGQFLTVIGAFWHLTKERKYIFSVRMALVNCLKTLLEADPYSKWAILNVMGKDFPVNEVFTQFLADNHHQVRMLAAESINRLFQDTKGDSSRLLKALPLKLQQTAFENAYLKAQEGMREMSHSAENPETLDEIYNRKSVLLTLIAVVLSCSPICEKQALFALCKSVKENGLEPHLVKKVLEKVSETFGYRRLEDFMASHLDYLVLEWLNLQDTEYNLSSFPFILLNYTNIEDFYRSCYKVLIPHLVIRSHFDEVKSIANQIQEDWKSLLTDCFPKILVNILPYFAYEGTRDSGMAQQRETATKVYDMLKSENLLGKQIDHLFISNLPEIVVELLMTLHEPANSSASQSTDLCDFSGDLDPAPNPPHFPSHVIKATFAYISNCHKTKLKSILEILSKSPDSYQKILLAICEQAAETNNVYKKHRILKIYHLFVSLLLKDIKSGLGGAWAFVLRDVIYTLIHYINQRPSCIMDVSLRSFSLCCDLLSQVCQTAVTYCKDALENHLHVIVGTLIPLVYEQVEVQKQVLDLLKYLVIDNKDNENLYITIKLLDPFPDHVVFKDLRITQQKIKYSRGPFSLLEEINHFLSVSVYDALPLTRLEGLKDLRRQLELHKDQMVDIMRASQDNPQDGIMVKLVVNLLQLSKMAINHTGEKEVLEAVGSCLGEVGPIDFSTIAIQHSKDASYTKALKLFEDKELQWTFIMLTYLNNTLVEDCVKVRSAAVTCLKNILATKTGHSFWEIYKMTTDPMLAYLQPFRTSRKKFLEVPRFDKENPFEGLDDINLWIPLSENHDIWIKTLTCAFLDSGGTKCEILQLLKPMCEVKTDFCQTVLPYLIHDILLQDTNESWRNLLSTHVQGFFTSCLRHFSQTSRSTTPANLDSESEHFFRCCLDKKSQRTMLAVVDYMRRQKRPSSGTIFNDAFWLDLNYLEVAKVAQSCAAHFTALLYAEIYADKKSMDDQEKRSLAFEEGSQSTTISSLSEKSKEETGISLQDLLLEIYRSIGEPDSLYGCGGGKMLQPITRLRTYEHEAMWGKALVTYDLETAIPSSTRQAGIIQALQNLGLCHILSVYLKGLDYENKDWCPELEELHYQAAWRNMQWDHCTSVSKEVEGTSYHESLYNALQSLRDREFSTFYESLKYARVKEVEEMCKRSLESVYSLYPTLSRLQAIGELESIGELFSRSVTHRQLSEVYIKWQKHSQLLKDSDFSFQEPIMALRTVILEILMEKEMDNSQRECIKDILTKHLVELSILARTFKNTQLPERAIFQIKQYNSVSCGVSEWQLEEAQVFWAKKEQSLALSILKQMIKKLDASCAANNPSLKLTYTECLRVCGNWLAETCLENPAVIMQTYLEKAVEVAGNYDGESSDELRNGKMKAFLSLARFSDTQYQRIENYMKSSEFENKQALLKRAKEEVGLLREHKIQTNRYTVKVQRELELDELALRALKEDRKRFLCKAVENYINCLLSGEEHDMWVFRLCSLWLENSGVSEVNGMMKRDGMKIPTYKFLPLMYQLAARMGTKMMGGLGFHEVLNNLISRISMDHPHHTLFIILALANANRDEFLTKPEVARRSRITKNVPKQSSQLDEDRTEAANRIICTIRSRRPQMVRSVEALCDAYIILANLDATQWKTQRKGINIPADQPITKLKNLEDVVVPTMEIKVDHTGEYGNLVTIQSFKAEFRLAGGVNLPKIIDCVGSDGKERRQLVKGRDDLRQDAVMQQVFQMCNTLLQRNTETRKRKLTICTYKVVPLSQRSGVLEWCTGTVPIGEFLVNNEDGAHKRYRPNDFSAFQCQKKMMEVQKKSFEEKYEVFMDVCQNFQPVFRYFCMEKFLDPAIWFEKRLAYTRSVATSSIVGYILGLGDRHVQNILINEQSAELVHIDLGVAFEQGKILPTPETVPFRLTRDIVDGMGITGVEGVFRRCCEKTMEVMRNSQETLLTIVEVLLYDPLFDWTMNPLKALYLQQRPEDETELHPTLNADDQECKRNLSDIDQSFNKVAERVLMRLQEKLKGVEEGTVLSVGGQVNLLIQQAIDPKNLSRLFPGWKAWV
Experimental: as §1, with “DiscoverX/Eurofins. ATM” for “DiscoverX/Eurofins. DNA-PK”, “containing 30” for “containing 50”, “plate was” for “plate is”, “= 10000 x” for “= 10,000 ×”

ATR/ATRIP (h) = target: T4, ATR/ATRIP (h) (Homo sapiens, UniProt Q13535); experiment: ATR kinase activity assay (DiscoverX/Eurofins, HTRF); settings: ATP 10 µM
T4 construct: purchased DiscoverX/Eurofins
Experimental: as §1, with “DiscoverX/Eurofins. ATR/ATRIP” for “DiscoverX/Eurofins. DNA-PK”, “reaction was” for “reaction is”, “signal was” for “signal is”

Structure (SMILES): CC(=O)c1ccc(-c2cnn3ccc(C(N)=O)nc23)cc1 [QFASG-2]
- IC50 (CaMKK2 (h)): 3 µM
- hill slope (CAMKK2 dose-response) (CaMKK2 (h)): −0.85

Structure (SMILES): N#Cc1ccc2ncc(NC(=O)Nc3cccnc3)cc2c1 [QFASG-6, 1-(6-cyanoquinolin-3-yl)-3-(pyridin-3-yl) urea]
- IC50 (DNA-PK (h)): 8 µM
- hill slope (DNA-PK dose-response) (DNA-PK (h)): −0.85
- IC50 (ATM (h)): 4 µM
- hill slope (ATM dose-response) (ATM (h)): −1.1
- remaining activity at 10 µM (ATM (h)): 31%
- ATR inhibition (in words) (ATR/ATRIP (h)): no ATR inhibition was observed
- IC50 (ATR/ATRIP (h)): > 10 µM

Structure (SMILES): Cn1cc(-c2ccc3ncc(NC(=O)Nc4cccc(F)c4F)cc3c2)cn1 [QFASG-5]
- remaining activity at 10 µM (ATM (h)): 71%

Structure (SMILES): CNC(=O)Nc1ccc(-c2ccn3ncc(-c4c[nH]c(C#N)n4)c3n2)cc1 [QFASG-3]
- IC50 (CaMKK2 (h)): 6 µM
- hill slope (CAMKK2 dose-response) (CaMKK2 (h)): −1.05

Structure (SMILES): CC(=O)c1cn(-c2ccn3ncc(-c4cccc(C(=O)C5CNC5)c4)c3n2)cn1 [QFASG-1]
- IC50 (CaMKK2 (h)): > 10 µM

Structure (SMILES): Cc1cc(N(C)c2ccc3ncc(NCC(=O)O)cc3c2)n(C2CC2)n1 [QFASG-4]
- remaining activity at 10 µM (ATM (h)): 98%
